Assays:
panel of 442 kinases [1] = molecular target: T1, panel of 442 kinases (Homo sapiens, UniProt O75716); assay type: binding; conditions: kinase STK16; compound concentration 10 µM
T1 construct: purchased KINOMEscan
Description: (§1) We assessed the selectivity of members of this scaffold using the KINOMEscan methodology across a near comprehensive panel of 442 kinases [[18,27]].

panel of 442 kinases [2] = molecular target: T2, panel of 442 kinases (Homo sapiens, UniProt P36888, D835Y); assay type: binding; conditions: Compound Concentration 10 µM
T2 construct: purchased KINOMEscan
T2 sequence (P36888 27-993 D835Y): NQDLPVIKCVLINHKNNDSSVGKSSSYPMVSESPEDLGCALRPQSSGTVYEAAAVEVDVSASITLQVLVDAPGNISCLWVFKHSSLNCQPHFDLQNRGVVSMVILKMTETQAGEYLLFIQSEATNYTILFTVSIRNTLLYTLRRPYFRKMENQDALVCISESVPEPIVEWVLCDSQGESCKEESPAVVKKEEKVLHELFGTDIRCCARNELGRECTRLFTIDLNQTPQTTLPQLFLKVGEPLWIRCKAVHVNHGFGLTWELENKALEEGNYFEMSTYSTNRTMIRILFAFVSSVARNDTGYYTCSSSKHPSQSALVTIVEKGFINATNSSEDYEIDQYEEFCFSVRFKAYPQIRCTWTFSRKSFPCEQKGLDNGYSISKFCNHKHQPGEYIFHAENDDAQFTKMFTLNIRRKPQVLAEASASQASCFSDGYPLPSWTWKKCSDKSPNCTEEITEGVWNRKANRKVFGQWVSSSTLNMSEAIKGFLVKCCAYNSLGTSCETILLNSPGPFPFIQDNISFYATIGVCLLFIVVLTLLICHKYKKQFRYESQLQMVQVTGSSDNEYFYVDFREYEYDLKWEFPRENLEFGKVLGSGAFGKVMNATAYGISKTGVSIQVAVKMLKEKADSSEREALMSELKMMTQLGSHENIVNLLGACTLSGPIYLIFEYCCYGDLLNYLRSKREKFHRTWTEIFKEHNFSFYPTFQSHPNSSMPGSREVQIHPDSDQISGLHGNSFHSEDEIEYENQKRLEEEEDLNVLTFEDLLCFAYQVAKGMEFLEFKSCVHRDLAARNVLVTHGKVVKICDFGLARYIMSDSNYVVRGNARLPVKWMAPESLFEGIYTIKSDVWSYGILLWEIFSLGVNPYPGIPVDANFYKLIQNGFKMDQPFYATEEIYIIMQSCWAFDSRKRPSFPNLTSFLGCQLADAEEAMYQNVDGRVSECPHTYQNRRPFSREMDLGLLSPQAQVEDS
Description: as §1

T1 sequence (O75716 whole entry): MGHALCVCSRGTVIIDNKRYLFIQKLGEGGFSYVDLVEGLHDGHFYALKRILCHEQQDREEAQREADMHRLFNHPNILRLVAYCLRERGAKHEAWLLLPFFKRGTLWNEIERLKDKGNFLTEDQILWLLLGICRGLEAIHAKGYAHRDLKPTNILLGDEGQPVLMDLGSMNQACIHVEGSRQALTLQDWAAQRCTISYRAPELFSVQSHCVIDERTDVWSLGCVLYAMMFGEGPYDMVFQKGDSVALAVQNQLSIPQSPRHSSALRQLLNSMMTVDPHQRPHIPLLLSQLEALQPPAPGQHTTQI

| Compound | % Ctrl, STK16 (panel of 442 kinases [1]) | KINOMEscan: FLT3(D835Y) (panel of 442 kinases [2]) |
| --- | --- | --- |
| COc1cc(C(=O)N2CCC(N3CCN(C)CC3)CC2)ccc1Nc1ncc2c(n1)N(C1CCCC1)c1ccccc1C(=O)N2C [Compound 25, 11-cyclopentyl-2-((2-methoxy-4-(4-(4-methylpiperazin-1-yl)piperidine-1-carbonyl)phenyl)amino)-5-methyl-5H-benzo[e]pyrimido[5,4-b][1,4]diazepin-6(11H)-one] | 75 % Ctrl | 100 |
| CCOc1cc(C(=O)N2CCC(N3CCN(C)CC3)CC2)ccc1Nc1ncc2c(n1)N(C1CCCC1)c1ccccc1C(=O)N2C [Compound 26] | 99 % Ctrl | 100 |
| COc1cc(C(=O)N2CCC(N3CCN(C)CC3)CC2)ccc1Nc1ncc2c(n1)N1CCc3cccc(c31)C(=O)N2C [Compound 24] | 50 % Ctrl | – |
| COc1cc(C(=O)N2CCC(N3CCN(C)CC3)CC2)ccc1Nc1ncc2c(n1)N(C)c1ccccc1C(=O)N2C [15 (LRRK2-IN-1)] | 62 % Ctrl | 100 |
